For experiment [1], the system named is myosin ATPase, Porcine Atria myofibrils. Briefly: Myofibril ATPase assay, porcine atria myofibrils. Conditions: concentration required to reduce myosin ATP-ase activity by 25%; Porcine Atria Prep pCa 25 GEOM_MEAN. The format is biochemical.
For experiment [2], the system named is myosin ATPase, Rabbit Psoas myofibrils. The experiment in a line: Myofibril ATPase assay, rabbit psoas (skeletal) myofibrils. The class given is biochemical. Conditions: concentration required to reduce myosin ATP-ase activity by 25%; Rabbit Psoas Prep pCa 25 GEOM_MEAN.
The target in experiment [3] is T1, myosin ATPase, Porcine Ventricle myofibrils (Sus scrofa, UniProt P79293).
T1 construct: Myofibrils from porcine cardiac muscle was isolated from the left ventricle of Yucatan minipigs; tissue Exemplar Genetics; host or cells: left ventricle of Yucatan minipigs, myofibrils
Briefly: Myofibril ATPase assay, porcine ventricle myofibrils. Particulars: concentration required to reduce myosin ATP-ase activity by 25%; Porcine Ventricle Prep pCa 25 GEOM_MEAN. The format is biochemical, porcine (Yucatan minipigs). The method in brief: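 Myofibrils from Yucatan minipig left ventricle; ADP production coupled via PK-LDH to NADH loss, read kinetically at 340 nm every 1.5–2 min for 75 min in PIPES/MgCl2 pH 7.0 buffer. Slopes normalized to vehicle and fit to 4-parameter logistic; values are concentrations giving 75% (inhibition) or 125% (activation) of vehicle activity.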

Molecules are shown by their SMILES.

T1 sequence (P79293 whole entry): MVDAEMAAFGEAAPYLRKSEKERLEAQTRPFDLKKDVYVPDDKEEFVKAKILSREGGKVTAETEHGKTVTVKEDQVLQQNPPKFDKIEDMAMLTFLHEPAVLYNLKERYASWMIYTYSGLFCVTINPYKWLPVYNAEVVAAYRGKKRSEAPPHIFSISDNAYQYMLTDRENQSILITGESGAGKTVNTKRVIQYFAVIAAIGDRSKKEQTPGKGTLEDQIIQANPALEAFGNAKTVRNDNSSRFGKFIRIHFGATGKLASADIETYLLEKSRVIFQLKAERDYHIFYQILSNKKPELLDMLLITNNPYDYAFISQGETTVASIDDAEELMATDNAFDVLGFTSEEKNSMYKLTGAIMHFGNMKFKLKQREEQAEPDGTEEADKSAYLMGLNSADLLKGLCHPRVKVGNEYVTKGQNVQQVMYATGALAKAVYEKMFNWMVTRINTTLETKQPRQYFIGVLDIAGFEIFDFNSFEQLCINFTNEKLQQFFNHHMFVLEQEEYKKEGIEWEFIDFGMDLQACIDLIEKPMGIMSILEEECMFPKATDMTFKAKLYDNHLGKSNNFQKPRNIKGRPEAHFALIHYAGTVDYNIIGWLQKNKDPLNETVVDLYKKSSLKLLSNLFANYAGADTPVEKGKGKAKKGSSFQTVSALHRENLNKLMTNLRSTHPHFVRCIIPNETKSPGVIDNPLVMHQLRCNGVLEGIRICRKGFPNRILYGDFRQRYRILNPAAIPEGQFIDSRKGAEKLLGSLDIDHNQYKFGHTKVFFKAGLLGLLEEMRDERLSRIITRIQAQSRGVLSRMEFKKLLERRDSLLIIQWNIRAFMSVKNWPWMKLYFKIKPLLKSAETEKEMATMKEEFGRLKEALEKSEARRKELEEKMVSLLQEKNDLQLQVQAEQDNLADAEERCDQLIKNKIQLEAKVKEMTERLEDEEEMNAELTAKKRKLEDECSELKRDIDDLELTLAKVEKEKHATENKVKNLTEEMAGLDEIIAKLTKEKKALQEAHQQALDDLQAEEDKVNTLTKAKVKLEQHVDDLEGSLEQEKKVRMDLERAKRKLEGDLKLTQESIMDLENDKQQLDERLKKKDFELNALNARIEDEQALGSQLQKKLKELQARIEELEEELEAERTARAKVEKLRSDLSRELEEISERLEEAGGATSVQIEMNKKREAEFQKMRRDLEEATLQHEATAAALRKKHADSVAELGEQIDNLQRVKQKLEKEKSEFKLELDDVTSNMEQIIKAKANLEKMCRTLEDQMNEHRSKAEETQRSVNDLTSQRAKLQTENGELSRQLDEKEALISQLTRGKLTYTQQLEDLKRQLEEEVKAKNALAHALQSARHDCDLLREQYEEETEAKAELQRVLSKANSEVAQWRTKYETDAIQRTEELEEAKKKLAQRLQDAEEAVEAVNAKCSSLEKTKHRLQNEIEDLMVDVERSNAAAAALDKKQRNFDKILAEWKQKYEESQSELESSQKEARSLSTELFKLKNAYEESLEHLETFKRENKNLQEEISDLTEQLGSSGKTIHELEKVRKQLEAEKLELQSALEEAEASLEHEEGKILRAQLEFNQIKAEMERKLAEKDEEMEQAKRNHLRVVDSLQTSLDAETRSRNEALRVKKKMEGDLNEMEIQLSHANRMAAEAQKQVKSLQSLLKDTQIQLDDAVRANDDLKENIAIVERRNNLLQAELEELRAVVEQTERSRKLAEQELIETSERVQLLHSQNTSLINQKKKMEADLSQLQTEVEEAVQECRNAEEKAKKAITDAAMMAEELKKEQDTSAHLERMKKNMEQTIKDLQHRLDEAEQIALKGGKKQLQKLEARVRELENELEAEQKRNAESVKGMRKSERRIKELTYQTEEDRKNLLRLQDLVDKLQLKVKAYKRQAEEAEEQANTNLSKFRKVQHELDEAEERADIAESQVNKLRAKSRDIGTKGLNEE

As for `CC(C)CN(C(=O)Cn1c(=O)[nH]c2ccccc2c1=O)C(C)c1ccc(F)cc1F` (stereo not drawn) [Compound 506, N-(1-(2,4-difluorophenyl)ethyl)-2-(2,4-dioxo-1,4-dihydroquinazolin-3(2H)-yl)-N-isobutylacetamide], in experiment [1], the “Porcine Atria EC25 (Y75 value)” value came out at 33.59 µM. Also, the “Rabbit Psoas EC25 (Y75 value)” value in experiment [2] was determined as 65.656 µM. In experiment [3], the “Porcine Ventricle EC25 (Y75 value)” value came out at 29.03 µM.

In the case of `O=C(Cn1c(=O)[nH]c2ccccc2c1=O)NC(c1ccc(Cl)cc1)c1cccs1` (stereo not drawn) [Compound 515, N-((4-chlorophenyl)(thiophen-2-yl)methyl)-2-(2,4-dioxo-1,4-dihydroquinazolin-3(2H)-yl)acetamide], the “Porcine Atria EC25 (Y75 value)” value in experiment [1] turned out to be 100 µM. The “Rabbit Psoas EC25 (Y75 value)” value in experiment [2] stood at 100 µM. Further, the “Porcine Ventricle EC25 (Y75 value)” value in experiment [3] was 100 µM.

In the case of `Cc1ccc(C(NC(=O)Cn2c(=O)[nH]c3ccccc3c2=O)c2ccccc2)cc1C` (stereo not drawn) [Compound 516, N-((3,4-dimethylphenyl)(phenyl)methyl)-2-(2,4-dioxo-1,4-dihydroquinazolin-3(2H)-yl)acetamide], in experiment [1], the “Porcine Atria EC25 (Y75 value)” value stood at 100 µM. The “Rabbit Psoas EC25 (Y75 value)” value in experiment [2] was found to be 100 µM. Further, in experiment [3], the “Porcine Ventricle EC25 (Y75 value)” value came to 100 µM.

In the case of `CC(NC(=O)Cn1c(=O)[nH]c2ccccc2c1=O)c1cc(F)ccc1N(C)C` (stereo not drawn) [Compound 518, N-(1-(2-(dimethylamino)-5-fluorophenyl)ethyl)-2-(2,4-dioxo-1,4-dihydroquinazolin-3(2H)-yl)acetamide], in experiment [1], the “Porcine Atria EC25 (Y75 value)” value amounted to 100 µM. The “Rabbit Psoas EC25 (Y75 value)” value in experiment [2] was determined as 100 µM. In addition, the “Porcine Ventricle EC25 (Y75 value)” value in experiment [3] amounted to 100 µM.

As for `CC(NC(=O)Cn1c(=O)[nH]c2ccccc2c1=O)c1cccc(F)c1` (stereo not drawn) [Compound 519, 2-(2,4-dioxo-1,4-dihydroquinazolin-3(2H)-yl)-N-(1-(3-fluorophenyl)ethyl)acetamide], the “Porcine Atria EC25 (Y75 value)” value in experiment [1] is 79.37 µM. For the same compound, in experiment [2], the “Rabbit Psoas EC25 (Y75 value)” value amounted to 100 µM. Moreover, the “Porcine Ventricle EC25 (Y75 value)” value in experiment [3] was determined as 100 µM.

In the case of `COc1ccc(F)cc1C(C)NC(=O)Cn1c(=O)[nH]c2ccccc2c1=O` (stereo not drawn) [Compound 520, 2-(2,4-dioxo-1,4-dihydroquinazolin-3(2H)-yl)-N-(1-(5-fluoro-2-methoxyphenyl)ethyl)acetamide], the “Porcine Atria EC25 (Y75 value)” value in experiment [1] was found to be 100 µM. In addition, in experiment [2], the “Rabbit Psoas EC25 (Y75 value)” value came out at 100 µM. Also, the “Porcine Ventricle EC25 (Y75 value)” value in experiment [3] turned out to be 100 µM.

`CC(c1ccc(F)cc1F)N(C)C(=O)Cn1c(=O)[nH]c2ccccc2c1=O` (stereo not drawn) [Compound 521, N-(1-(2,4-difluorophenyl)ethyl)-2-(2,4-dioxo-1,4-dihydroquinazolin-3(2H)-yl)-N-methylacetamide]: the “Porcine Atria EC25 (Y75 value)” value in experiment [1] came out at 100 µM. Besides, the “Rabbit Psoas EC25 (Y75 value)” value in experiment [2] stood at 1.26 µM. For the same compound, the “Porcine Ventricle EC25 (Y75 value)” value in experiment [3] amounted to 100 µM.

Regarding `COc1cccc(C(C)NC(=O)Cn2c(=O)[nH]c3ccccc3c2=O)c1` (stereo not drawn) [Compound 522, 2-(2,4-dioxo-1,4-dihydroquinazolin-3(2H)-yl)-N-(1-(3-methoxyphenyl)ethyl)acetamide], the “Porcine Atria EC25 (Y75 value)” value in experiment [1] is 100 µM. Besides, the “Rabbit Psoas EC25 (Y75 value)” value in experiment [2] came to 100 µM. For the same compound, the “Porcine Ventricle EC25 (Y75 value)” value in experiment [3] came out at 100 µM.

Turning to `CC(NC(=O)Cn1c(=O)[nH]c2ccccc2c1=O)c1ccccc1Cl` (stereo not drawn) [Compound 523, N-(1-(2-chlorophenyl)ethyl)-2-(2,4-dioxo-1,4-dihydroquinazolin-3(2H)-yl)acetamide], the “Porcine Atria EC25 (Y75 value)” value in experiment [1] is 7.86 µM. For the same compound, the “Rabbit Psoas EC25 (Y75 value)” value in experiment [2] was 16.05 µM. Also, the “Porcine Ventricle EC25 (Y75 value)” value in experiment [3] came out at 100 µM.

Turning to `CC(NC(=O)Cn1c(=O)[nH]c2ccccc2c1=O)c1ccccc1Br` (stereo not drawn) [Compound 524, N-(1-(2-bromophenyl)ethyl)-2-(2,4-dioxo-1,4-dihydroquinazolin-3(2H)-yl)acetamide], the “Porcine Atria EC25 (Y75 value)” value in experiment [1] stood at 73.54 µM. Besides, the “Rabbit Psoas EC25 (Y75 value)” value in experiment [2] worked out at 11.968 µM. Also, the “Porcine Ventricle EC25 (Y75 value)” value in experiment [3] was 100 µM.

As for `CC(NC(=O)Cn1c(=O)[nH]c2ccccc2c1=O)c1cc(F)ccc1F` (stereo not drawn) [Compound 525, N-(1-(2,5-difluorophenyl)ethyl)-2-(2,4-dioxo-1,4-dihydroquinazolin-3(2H)-yl)acetamide], the “Porcine Atria EC25 (Y75 value)” value in experiment [1] came out at 23.51 µM. Besides, in experiment [2], the “Rabbit Psoas EC25 (Y75 value)” value stood at 5.727 µM. Also, the “Porcine Ventricle EC25 (Y75 value)” value in experiment [3] came to 100 µM.

As to `CC(NC(=O)Cn1c(=O)[nH]c2ccccc2c1=O)c1nccs1` (stereo not drawn) [Compound 601, 2-(2,4-dioxo-1,4-dihydroquinazolin-3(2H)-yl)-N-(1-(thiazol-2-yl)ethyl)acetamide], the “Porcine Atria EC25 (Y75 value)” value in experiment [1] came out at 100 µM. Moreover, the “Rabbit Psoas EC25 (Y75 value)” value in experiment [2] was determined as 100 µM. For the same compound, the “Porcine Ventricle EC25 (Y75 value)” value in experiment [3] was found to be 100 µM.

For the compound `Cc1nn(C)cc1C(C)NC(=O)Cn1c(=O)[nH]c2ccccc2c1=O` (stereo not drawn) [Compound 602, N-(1-(1,3-dimethyl-1H-pyrazol-4-yl)ethyl)-2-(2,4-dioxo-1,4-dihydroquinazolin-3(2H)-yl)acetamide], the “Porcine Atria EC25 (Y75 value)” value in experiment [1] turned out to be 100 µM. Further, the “Rabbit Psoas EC25 (Y75 value)” value in experiment [2] is 100 µM. The “Porcine Ventricle EC25 (Y75 value)” value in experiment [3] was found to be 100 µM.

Take `CC(NC(=O)Cn1c(=O)[nH]c2ccccc2c1=O)c1cnn(C)c1` (stereo not drawn) [Compound 603, 2-(2,4-dioxo-1,4-dihydroquinazolin-3(2H)-yl)-N-(1-(1-methyl-1H-pyrazol-4-yl)ethyl)acetamide]: in experiment [1], the “Porcine Atria EC25 (Y75 value)” value turned out to be 100 µM. Also, the “Rabbit Psoas EC25 (Y75 value)” value in experiment [2] was determined as 100 µM. In addition, in experiment [3], the “Porcine Ventricle EC25 (Y75 value)” value was determined as 100 µM.

On to `CC(NC(=O)Cn1c(=O)[nH]c2ccccc2c1=O)c1ccco1` (stereo not drawn) [Compound 604, 2-(2,4-dioxo-1,4-dihydroquinazolin-3(2H)-yl)-N-(1-(furan-2-yl)ethyl)acetamide], for which, in experiment [1], the “Porcine Atria EC25 (Y75 value)” value came out at 100 µM. Further, the “Rabbit Psoas EC25 (Y75 value)” value in experiment [2] was 100 µM. Also, in experiment [3], the “Porcine Ventricle EC25 (Y75 value)” value was found to be 100 µM.

`CC(NC(=O)Cn1c(=O)[nH]c2ccccc2c1=O)C1CCCC1` (stereo not drawn) [Compound 605, N-(1-cyclopentylethyl)-2-(2,4-dioxo-1,4-dihydroquinazolin-3(2H)-yl)acetamide]: the “Porcine Atria EC25 (Y75 value)” value in experiment [1] amounted to 100 µM. In experiment [2], the “Rabbit Psoas EC25 (Y75 value)” value turned out to be 100 µM. For the same compound, the “Porcine Ventricle EC25 (Y75 value)” value in experiment [3] came to 100 µM.

As to `CC(NC(=O)Cn1c(=O)[nH]c2ccccc2c1=O)c1cccs1` (stereo not drawn) [Compound 606, 2-(2,4-dioxo-1,4-dihydroquinazolin-3(2H)-yl)-N-(1-(thiophen-2-yl)ethyl)acetamide], the “Porcine Atria EC25 (Y75 value)” value in experiment [1] is 100 µM. Further, the “Rabbit Psoas EC25 (Y75 value)” value in experiment [2] was determined as 100 µM. Also, the “Porcine Ventricle EC25 (Y75 value)” value in experiment [3] was 100 µM.

As to `COc1cc2c(cc1OC)C(NC(=O)Cn1c(=O)[nH]c3ccccc3c1=O)CC2` (stereo not drawn) [Compound 703, N-(5,6-dimethoxy-2,3-dihydro-1H-inden-1-yl)-2-(2,4-dioxo-1,4-dihydroquinazolin-3(2H)-yl)acetamide], the “Porcine Atria EC25 (Y75 value)” value in experiment [1] was determined as 100 µM. Besides, the “Rabbit Psoas EC25 (Y75 value)” value in experiment [2] worked out at 100 µM. In experiment [3], the “Porcine Ventricle EC25 (Y75 value)” value was determined as 100 µM.

`O=C(Cn1c(=O)[nH]c2ccccc2c1=O)NCc1ccc(F)cc1F` [Compound 5009, N-(2,4-difluorobenzyl)-2-(2,4-dioxo-1,4-dihydroquinazolin-3(2H)-yl)acetamide]: the “Porcine Atria EC25 (Y75 value)” value in experiment [1] amounted to 100 µM. For the same compound, the “Rabbit Psoas EC25 (Y75 value)” value in experiment [2] came to 100 µM. Also, the “Porcine Ventricle EC25 (Y75 value)” value in experiment [3] amounted to 100 µM.

For the origin of these results see US12559464B2, “Quinazolinone dione compounds and uses thereof” (Edgewise Therapeutics, Inc., priority 2023, dated 2026).
